Experimental data: patent US7880021B2, “Compounds and kits for the detection and the quantification of cell apoptosis” (Centre National de la Recherche Scientifique (CNRS), priority 2005, dated 2011)

Tests used:
[1] = tested on: CEM T cells; test: Emission spectra in living and apoptotic cell suspensions, and Ca2+ dependence; format: cell-based, human
Description: FIG. 3: Emission spectra of the probe F2N12S in living (solid line) and apoptotic (dash line) CEM cells. Excitation wavelength was 400 nm. Final probe concentration was 0.1 μM.
FIG. 4: Ca^2+ dependence of F2N12S emission spectra in apoptotic CEM cells. The excitation wavelength was 400 nm. The spectra were recorded at Ca^2+ concentrations of 0.2, 0.4, 0.8, 1.2 and 2 mM and normalized. Final probe concentration was 0.1 μM.
Human lymphoid CEM T cells were cultured in X-vivo 15 medium (Cambrex, France) at 37° C. in humidified 5% CO2 atmosphere. Cell viability was checked by trypan blue exclusion. Cells were seeded at 5×10^5 cells/ml in the presence or absence of actinomycin D (0.5 μg/ml) for 18 h. […]
The cells were washed twice by HBSS before each experiment to eliminate fetal bovine serum. […] For fluorescence measurements with the probe of the invention F2N12S (fluorometry, flow cytometry and confocal microscopy), cells were resuspended in HBSS with 0.1 μM F2N12S. […] The staining pattern of the cells was checked with a Confocal Imaging System MRC-1024 (BioRad) to ascertain that fluorescence originates from the plasma membrane.
Fluorescence spectra were recorded on a FLUOROMAX-3® (spectrofluorometer) (JobinYvon Horiba). The excitation wavelength for fluorescence emission spectra of F2N12S probes was 400 nm. […]

[2] = tested on: T lymphoblastoid cells; test: Flow cytometry analysis with annexin V-FITC, PI and F2N12S; format: cell-based, human
Text: FIG. 6: Flow cytometry analysis of T lymphoblastoid cells treated by actinomycin D. Cells were stained by annexin V-FITC, PI and F2N12S. In (a), Annexin V-FITC and PI were selectively excited at 488 nm. Cells are sorted into living, dead and apoptotic cell populations. In (b), F2N12S is selectively excited at 407 nm. Living cells are discriminated from apoptotic and necrotic cells. In (c), the PI fluorescence intensities are plotted versus the T*/N* ratio of F2N12S. Living cells are in green, apoptotic cells are in cyan and dead cells are in orange. In (d), the populations sorted using the F2N12S/PI couple were colored according to their response with the annexin V/PI couple. The wavelengths of maximal transmission and bandwidths of used filters are indicated in brackets.
FIG. 7: Comparison of the intensiometric response of annexin V-FITC (a) with the ratiometric fluorescence response of F2N12S (b). Living, dead and apoptotic cells were identified as described in FIG. 6, by using either the annexin V-FITC/PI (a) or the F2N12S/PI (b) couple of dyes.
FIG. 8: Comparison of the response of annexin V-FITC and F2N12S on non-treated T lymphoblastoid cells stained by annexin V-FITC, PI and F2N12S. In (a), annexin V-FITC and PI were selectively excited at 488 nm. In (b), F2N12S is selectively excited at 407 nm. Cells are sorted into living and dead cell populations.
Human lymphoid CEM T cells were cultured in X-vivo 15 medium (Cambrex, France) at 37° C. in humidified 5% CO2 atmosphere. Cell viability was checked by trypan blue exclusion. Cells were seeded at 5×10^5 cells/ml in the presence or absence of actinomycin D (0.5 μg/ml) for 18 h. Cells were pelleted by centrifugation at 1500 rpm for 5 min and resuspended at 1×10^6 cells/ml in X-vivo 15 medium for experiments.
For the validation of F2N12S in cell cytometry, we used a FASCARIA™ (cell sorter) (BD Biosciences, CA, USA) equipped with an argon laser (488 nm) and a diode laser (407 nm) and emission filters DF30, DF42 and DF20 centered at 530 nm, 585 nm and 610 nm, respectively. The optical pathways corresponding to the argon laser and to the diode laser are independent. Data were analyzed using the FACSDIVA™ (cell sorter) Software (BD Biosciences). The granulation, size and fluorescence intensity were recorded at a rate of ˜1000 cells per second.
T lymphoblastoid cells were treated with actinomycin D and labeled simultaneously by FITC-labeled annexin V, propidium iodide (PI) and F2N12S. […] The emissions of FITC and PI were collected in the spectral regions of 515-545 nm and 600-620 nm, respectively. […] The emission light in this case was collected in two spectral regions: at 515-545 nm to monitor the emission of the N* band and 564-606 nm to collect the emission of the T* band (FIG. 6b). […] The second one is characterized by a high N*/T* intensity ratio (shown in red) and can be assigned to apoptotic and dead cells.
The probe of the invention F2N12S has been combined with PI and the fluorescence intensities of PI have been represented as a function of the T*/N* ratio of F2N12S (FIG. 6c). In this case, the populations of apoptotic and dead cells are clearly discriminated by using the differences in the PI intensities. […] This conclusion was further strengthened when the populations discriminated by the F2N12S/PI couple were colored according to their response with the annexin V-FITC/PI couple (FIG. 6d).

[3] = actinomycin D-treated cells, probe combined with PI

“1-dodecanaminium, N-[[2-[4-Diethylaminophenyl]-3-hydroxychromon-6-yl]-methyl]-N-methyl-N-(3-sulfopropyl)-, inner salt [F2N12S]” was tested, and the “relative intensity of the short-wavelength band, apoptotic versus living cells” value ([1]; actinomycin D-induced apoptosis, cells sorted with FITC-annexin, excitation 400 nm, probe 0.1 μM) was ~2 fold, the “dependence of the response on Ca2+ concentration” value ([1]; apoptotic cells, Ca2+ 0-2 mM) was “insensitive” and the “percentage of apoptotic cells” value [2, 3] was 19.5%. For the same substance, the “percentage of dead cells” value [2, 3] was 48%, the “percentage of living cells” value [2, 3] was 32.5% and the “percentage of dead cells” value ([2]; non-treated T lymphoblastoid cells) was 5%.
